Experimental data reported in paper PMC11111408, “Concurrent inhibition of oncogenic and wild-type RAS-GTP for cancer therapy” (Nature, 2024).

System: PRISM DNA-barcoded human tumour cell lines
Experiment: PRISM pooled cell viability assay;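 as to PRISM AUC: 8 threefold dilutions from 10 µM with 5 days of exposure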
Format: cell-based
Set-up: AUC (PRISM viability) / AUC (PRISM): unit not given beside the values
Details: for AUC (PRISM viability): WT; for PRISM AUC: KRAS MUT
Procedure: Cells were then lysed in TCL mRNA lysis buffer, and then PCR with reverse transcription was performed. Detection of the barcodes and univariate and multivariate analysis was then performed as previously described. Data analysis is described in the Supplementary Methods. Up-to-date code for our analysis is at the github link: https://github.com/cmap/dockerized_mts.
For every gene with non-silent mutations in at least four cell-lines, we compared the AUC values between cells with and without those mutations using a t-test. This analysis was carried out for: (i) the full dataset; (ii) excluding cell lines with non-silent KRAS mutations; and (iii) excluding cell lines that have either KRAS or NRAS non-silent mutations.

CCn1c(-c2cc(N3CCN(C4CC4)CC3)cnc2[C@H](C)OC)c2c3cc(ccc31)-c1csc(n1)C[C@H](NC(=O)[C@H]1[C@@H]3COC[C@@H]31)C(=O)N1CCC[C@H](N1)C(=O)OCC(C)(C)C2 [RMC-7977]
AUC (PRISM viability) (MPP89_PLEURA): 0.9969 | AUC (PRISM viability) (MSTO211H_PLEURA): 0.3796 | AUC (PRISM viability) (NALM6_HAEMATOPOIETIC_AND_LYMPHOID_TISSUE): 0.7052 | AUC (PRISM viability) (NB1_AUTONOMIC_GANGLIA): 0.4921 | PRISM AUC (NCIH23_LUNG): 0.451 | AUC (PRISM viability) (NCIH28_PLEURA): 0.6741 | AUC (PRISM viability) (NCIH82_LUNG): 0.581 | AUC (PRISM viability) (NCIH196_LUNG): 0.9033 | AUC (PRISM viability) (NCIH226_LUNG): 0.6197 | AUC (PRISM viability) (NCIH292_LUNG): 0.4596 | AUC (PRISM viability) (NCIH322_LUNG): 0.4865 | PRISM AUC (NCIH358_LUNG): 0.1803 | PRISM AUC (NCIH441_LUNG): 0.3007 | AUC (PRISM viability) (NCIH446_LUNG): 0.8555 | AUC (PRISM viability) (NCIH508_LARGE_INTESTINE): 0.3599 | AUC (PRISM viability) (NCIH520_LUNG): 0.7662 | AUC (PRISM viability) (NCIH522_LUNG): 0.759 | AUC (PRISM viability) (NCIH524_LUNG): 0.7662 | AUC (PRISM viability) (NCIH596_LUNG): 0.5305 | PRISM AUC (NCIH647_LUNG): 0.7239 | AUC (PRISM viability) (NCIH661_LUNG): 0.7122 | PRISM AUC (NCIH727_LUNG): 0.5024 | PRISM AUC (NCIH747_LARGE_INTESTINE): 0.2108 | AUC (PRISM viability) (NCIH838_LUNG): 0.8166 | AUC (PRISM viability) (NCIH841_LUNG): 0.7846 | AUC (PRISM viability) (NCIH1048_LUNG): 0.6373 | AUC (PRISM viability) (NCIH1092_LUNG): 0.3222 | AUC (PRISM viability) (NCIH1299_LUNG): 0.4354 | PRISM AUC (NCIH1339_LUNG): 0.4553 | AUC (PRISM viability) (NCIH1341_LUNG): 0.5477 | PRISM AUC (NCIH1355_LUNG): 0.4521 | PRISM AUC (NCIH1373_LUNG): 0.3791 | AUC (PRISM viability) (NCIH1435_LUNG): 0.8637 | AUC (PRISM viability) (NCIH1437_LUNG): 0.5969 | AUC (PRISM viability) (NCIH1563_LUNG): 0.6189 | AUC (PRISM viability) (NCIH1568_LUNG): 0.6734 | AUC (PRISM viability) (NCIH1581_LUNG): 0.9998 | AUC (PRISM viability) (NCIH1648_LUNG): 0.2199 | AUC (PRISM viability) (NCIH1650_LUNG): 0.6245 | AUC (PRISM viability) (NCIH1651_LUNG): 0.8871 | AUC (PRISM viability) (NCIH1693_LUNG): 0.8183 | AUC (PRISM viability) (NCIH1694_LUNG): 0.5791 | AUC (PRISM viability) (NCIH1703_LUNG): 0.6825 | PRISM AUC (NCIH1792_LUNG): 0.2139 | AUC (PRISM viability) (NCIH1793_LUNG): 0.6312 | AUC (PRISM viability) (NCIH1838_LUNG): 0.5855 | AUC (PRISM viability) (NCIH1915_LUNG): 0.641 | PRISM AUC (NCIH1944_LUNG): 0.5331 | AUC (PRISM viability) (NCIH1975_LUNG): 0.5382 | AUC (PRISM viability) (NCIH2023_LUNG): 0.5354 | AUC (PRISM viability) (NCIH2087_LUNG): 0.3287 | AUC (PRISM viability) (NCIH2110_LUNG): 0.5875 | PRISM AUC (NCIH2122_LUNG): 0.1883 | AUC (PRISM viability) (NCIH2126_LUNG): 0.6292 | AUC (PRISM viability) (NCIH2170_LUNG): 0.6244 | AUC (PRISM viability) (NCIH2171_LUNG): 0.8542 | AUC (PRISM viability) (NCIH2172_LUNG): 0.765 | AUC (PRISM viability) (NCIH2228_LUNG): 0.4232 | PRISM AUC (NCIH2444_LUNG): 0.2818 | AUC (PRISM viability) (NCIH2452_PLEURA): 1 | AUC (PRISM viability) (NCIN87_STOMACH): 0.7465 | AUC (PRISM viability) (NCO2_HAEMATOPOIETIC_AND_LYMPHOID_TISSUE): 0.625 | AUC (PRISM viability) (NIHOVCAR3_OVARY): 0.7506 | PRISM AUC (NOMO1_HAEMATOPOIETIC_AND_LYMPHOID_TISSUE): 0.4639 | AUC (PRISM viability) (NUGC3_STOMACH): 0.3156 | AUC (PRISM viability) (NUGC4_STOMACH): 0.304 | AUC (PRISM viability) (OAW42_OVARY): 0.7122 | AUC (PRISM viability) (OC314_OVARY): 0.7084 | AUC (PRISM viability) (OC316_OVARY): 0.6527 | AUC (PRISM viability) (OCIAML2_HAEMATOPOIETIC_AND_LYMPHOID_TISSUE): 0.8145 | AUC (PRISM viability) (OCIAML3_HAEMATOPOIETIC_AND_LYMPHOID_TISSUE): 0.162 | AUC (PRISM viability) (OCILY3_HAEMATOPOIETIC_AND_LYMPHOID_TISSUE): 0.7702 | AUC (PRISM viability) (OCIM1_HAEMATOPOIETIC_AND_LYMPHOID_TISSUE): 0.5554 | AUC (PRISM viability) (OE19_OESOPHAGUS): 0.4503 | AUC (PRISM viability) (OE21_OESOPHAGUS): 0.4077 | AUC (PRISM viability) (OE33_OESOPHAGUS): 0.4516 | AUC (PRISM viability) (ONCODG1_OVARY): 0.8342 | AUC (PRISM viability) (ONS76_CENTRAL_NERVOUS_SYSTEM): 0.1792 | AUC (PRISM viability) (OSRC2_KIDNEY): 0.7371 | AUC (PRISM viability) (OUMS23_LARGE_INTESTINE): 0.9107 | PRISM AUC (OV7_OVARY): 0.3327 | PRISM AUC (OV56_OVARY): 0.6812 | AUC (PRISM viability) (OVISE_OVARY): 0.7216 | AUC (PRISM viability) (OVKATE_OVARY): 0.7188 | AUC (PRISM viability) (OVTOKO_OVARY): 0.7297 | AUC (PRISM viability) (P12ICHIKAWA_HAEMATOPOIETIC_AND_LYMPHOID_TISSUE): 0.1917 | PRISM AUC (PANC1_PANCREAS): 0.7301 | PRISM AUC (PANC0203_PANCREAS): 0.1549 | PRISM AUC (PANC0327_PANCREAS): 0.3885 | PRISM AUC (PANC0403_PANCREAS): 0.1969 | PRISM AUC (PANC0504_PANCREAS): 0.2677 | PRISM AUC (PANC0813_PANCREAS): 0.6012 | PRISM AUC (PANC1005_PANCREAS): 0.492 | PRISM AUC (PATU8902_PANCREAS): 0.2883 | PRISM AUC (PATU8988S_PANCREAS): 0.2608 | PRISM AUC (PATU8988T_PANCREAS): 0.5033 | AUC (PRISM viability) (PC3_PROSTATE): 0.7599 | AUC (PRISM viability) (PC14_LUNG): 0.4618 | AUC (PRISM viability) (PECAPJ15_UPPER_AERODIGESTIVE_TRACT): 0.4843 | AUC (PRISM viability) (PECAPJ41CLONED2_UPPER_AERODIGESTIVE_TRACT): 0.3318 | AUC (PRISM viability) (PECAPJ49_UPPER_AERODIGESTIVE_TRACT): 0.2883 | AUC (PRISM viability) (PF382_HAEMATOPOIETIC_AND_LYMPHOID_TISSUE): 0.3397 | PRISM AUC (PK1_PANCREAS): 0.3834 | PRISM AUC (PK45H_PANCREAS): 0.5023 | PRISM AUC (PK59_PANCREAS): 0.2749 | AUC (PRISM viability) (PLCPRF5_LIVER): 0.7216 | PRISM AUC (PSN1_PANCREAS): 0.12 | PRISM AUC (QGP1_PANCREAS): 0.3907 | AUC (PRISM viability) (RCC10RGB_KIDNEY): 0.7484 | PRISM AUC (RCM1_LARGE_INTESTINE): 0.1259 | AUC (PRISM viability) (RDES_BONE): 0.7616 | AUC (PRISM viability) (RD_SOFT_TISSUE): 0.207 | AUC (PRISM viability) (RERFGC1B_STOMACH): 0.5427 | PRISM AUC (RERFLCAD2_LUNG): 0.4067 | AUC (PRISM viability) (RERFLCAI_LUNG): 0.6094 | AUC (PRISM viability) (RERFLCKJ_LUNG): 0.8949 | AUC (PRISM viability) (RERFLCMS_LUNG): 0.7953 | AUC (PRISM viability) (RH30_SOFT_TISSUE): 0.6971 | AUC (PRISM viability) (RI1_HAEMATOPOIETIC_AND_LYMPHOID_TISSUE): 0.7681 | PRISM AUC (RKN_SOFT_TISSUE): 0.1266 | AUC (PRISM viability) (RKO_LARGE_INTESTINE): 0.9515 | AUC (PRISM viability) (RL952_ENDOMETRIUM): 0.342 | AUC (PRISM viability) (RL_HAEMATOPOIETIC_AND_LYMPHOID_TISSUE): 0.7851 | AUC (PRISM viability) (RMGI_OVARY): 0.5297 | AUC (PRISM viability) (RMUGS_OVARY): 0.8312 | AUC (PRISM viability) (RPMI7951_SKIN): 0.9756 | AUC (PRISM viability) (RPMI8402_HAEMATOPOIETIC_AND_LYMPHOID_TISSUE): 0.7828 | AUC (PRISM viability) (RT4_URINARY_TRACT): 0.5133 | AUC (PRISM viability) (RT112_URINARY_TRACT): 0.1516 | AUC (PRISM viability) (RVH421_SKIN): 0.8566 | AUC (PRISM viability) (SBC5_LUNG): 0.6474 | AUC (PRISM viability) (SCABER_URINARY_TRACT): 0.3752 | AUC (PRISM viability) (SCC9_UPPER_AERODIGESTIVE_TRACT): 0.5257
